Reference: PubChem BioAssay (NCI)
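96-well plates; 48 h exposure; 5 concentrations. Endpoints by linear interpolation between flanking doses. Not reached: highest tested concentration assigned. GI50 = concentration required for 50% inhibition of growth. TGI: total growth inhibition.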

Legend:
Test in all cases: NCI tumour cell line growth inhibition, 48 h
UACC-62 melanoma = tested on: UACC-62 melanoma
UO-31 renal = tested on: UO-31 renal
SF-539 CNS = tested on: SF-539 CNS
NCI-H460 lung = tested on: NCI-H460 lung
IGROV1 ovarian = tested on: IGROV1 ovarian
SN12C renal = tested on: SN12C renal
M14 melanoma = tested on: M14 melanoma
A549 NSCLC = tested on: A549 NSCLC
BT-549 breast = tested on: BT-549 breast
NCI-H522 lung = tested on: NCI-H522 lung

CN(Cc1ccccc1)Cn1ccnc1
TGI (UACC-62 melanoma): > 100 µM
TGI (UO-31 renal): > 100 µM
TGI (SF-539 CNS): > 100 µM
TGI (NCI-H460 lung): > 80.6 µM
TGI (IGROV1 ovarian): > 100 µM
TGI (SN12C renal): > 100 µM
TGI (M14 melanoma): 39.6 µM
TGI (A549 NSCLC): > 100 µM
TGI (BT-549 breast): > 100 µM
TGI (NCI-H522 lung): > 100 µM

Cc1cnc2n1S(=O)(=O)c1cc(C(=O)Nc3cccc4nsnc34)c(Cl)cc1S2
GI50 (UACC-62 melanoma): 17.1 µM
TGI (UACC-62 melanoma): 32.9 µM
GI50 (UO-31 renal): 22.9 µM
TGI (UO-31 renal): 51.8 µM
GI50 (SF-539 CNS): 23.4 µM
TGI (SF-539 CNS): 50.2 µM
GI50 (NCI-H460 lung): 18 µM
TGI (NCI-H460 lung): 37.7 µM
GI50 (IGROV1 ovarian): 31.2 µM
TGI (IGROV1 ovarian): > 100 µM
GI50 (SN12C renal): 25.3 µM
TGI (SN12C renal): 58.5 µM
GI50 (M14 melanoma): 52.2 µM
TGI (M14 melanoma): > 100 µM
GI50 (A549 NSCLC): 46.9 µM
TGI (A549 NSCLC): > 100 µM
GI50 (BT-549 breast): > 100 µM
TGI (BT-549 breast): > 100 µM
GI50 (NCI-H522 lung): 47.6 µM
TGI (NCI-H522 lung): > 100 µM

CC(C)C[C@H](NC(=O)CNC(=O)c1cc(Cl)ccc1Cl)B(O)O
GI50 (UACC-62 melanoma): < 0.0175 µM
TGI (UACC-62 melanoma): 0.0457 µM
GI50 (UO-31 renal): < 0.0131 µM
TGI (UO-31 renal): 0.0406 µM
GI50 (SF-539 CNS): < 0.0125 µM
TGI (SF-539 CNS): 0.0258 µM
GI50 (NCI-H460 lung): 0.0831 µM
TGI (NCI-H460 lung): 0.919 µM
GI50 (IGROV1 ovarian): 0.0498 µM
TGI (IGROV1 ovarian): 0.283 µM
GI50 (SN12C renal): 0.0442 µM
TGI (SN12C renal): 0.39 µM
GI50 (M14 melanoma): 0.0202 µM
GI50 (A549 NSCLC): 0.046 µM
TGI (A549 NSCLC): 7.6 µM
GI50 (BT-549 breast): < 0.0145 µM
TGI (BT-549 breast): 0.137 µM
GI50 (NCI-H522 lung): 0.0164 µM
TGI (NCI-H522 lung): 0.0414 µM

Cc1c(-c2cnccn2)ssc1=S
TGI (UACC-62 melanoma): > 100 µM
TGI (UO-31 renal): > 89.7 µM
TGI (SF-539 CNS): > 100 µM
TGI (NCI-H460 lung): > 100 µM
TGI (IGROV1 ovarian): > 100 µM
TGI (SN12C renal): > 100 µM
TGI (M14 melanoma): > 100 µM
TGI (A549 NSCLC): > 100 µM
TGI (BT-549 breast): 68.5 µM
TGI (NCI-H522 lung): > 89.8 µM

Cc1cc2c(C(=O)NC[C@H](C)c3ccccc3)c(O)c(O)cc2c(O)c1-c1c(C)cc2c(C(=O)NC[C@H](C)c3ccccc3)c(O)c(O)cc2c1O
GI50 (UACC-62 melanoma): 0.146 µM
TGI (UACC-62 melanoma): 0.486 µM
GI50 (UO-31 renal): 0.285 µM
TGI (UO-31 renal): 1.24 µM
GI50 (SF-539 CNS): 0.242 µM
TGI (SF-539 CNS): 1.02 µM
GI50 (NCI-H460 lung): 0.0334 µM
TGI (NCI-H460 lung): 0.388 µM
GI50 (IGROV1 ovarian): 0.0909 µM
TGI (IGROV1 ovarian): 11.3 µM
GI50 (SN12C renal): 0.436 µM
TGI (SN12C renal): 10.6 µM
GI50 (M14 melanoma): 0.438 µM
TGI (M14 melanoma): 5.72 µM
GI50 (A549 NSCLC): 0.0693 µM
TGI (A549 NSCLC): 3.23 µM
GI50 (BT-549 breast): 0.0437 µM
TGI (BT-549 breast): 2.03 µM
GI50 (NCI-H522 lung): 0.288 µM
TGI (NCI-H522 lung): 1.18 µM

COc1ccc(C2(Cl)c3ccccc3N(c3ccccc3)c3ccccc32)cc1
GI50 (UACC-62 melanoma): 0.191 µM
TGI (UACC-62 melanoma): 1.4 µM
GI50 (UO-31 renal): 0.846 µM
TGI (UO-31 renal): 10.8 µM
GI50 (SF-539 CNS): 0.519 µM
TGI (SF-539 CNS): 1.95 µM
GI50 (NCI-H460 lung): 0.484 µM
TGI (NCI-H460 lung): 1.94 µM
GI50 (IGROV1 ovarian): 0.77 µM
TGI (IGROV1 ovarian): 10.3 µM
GI50 (SN12C renal): 0.232 µM
TGI (SN12C renal): 1.22 µM
GI50 (M14 melanoma): 0.224 µM
TGI (M14 melanoma): 1.38 µM
GI50 (A549 NSCLC): 0.407 µM
TGI (A549 NSCLC): 2.9 µM
GI50 (BT-549 breast): 0.211 µM
TGI (BT-549 breast): 1.42 µM
GI50 (NCI-H522 lung): 0.444 µM
TGI (NCI-H522 lung): 2.94 µM

CCOC(=O)Cc1c(C)c2cc(C(=O)c3ccccc3)c(O)cc2oc1=O
TGI (UACC-62 melanoma): > 100 µM
TGI (SF-539 CNS): 58.3 µM
TGI (NCI-H460 lung): > 100 µM
TGI (IGROV1 ovarian): > 100 µM
TGI (SN12C renal): > 100 µM
TGI (M14 melanoma): > 100 µM
TGI (A549 NSCLC): 91.3 µM
TGI (BT-549 breast): 59.8 µM
TGI (NCI-H522 lung): 68.7 µM
